Our source for the IC50 values is patent publication US9040527B2, “Pyrimidinediamine kinase inhibitors” (Rigel Pharmaceuticals, Inc., priority 2008, dated 2015).

In general, IC50 refers to the concentration that gives 50% inhibition.

Assay [1] concerns the target T1, PLK1 (Homo sapiens, UniProt P53350). Briefly: In vitro PLK1 ELISA assay (biochemical). More on the design: purchased Cell Signalling 7728. The method, boiled down: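 Commercial PLK1 phosphorylates neutravidin-captured biotinylated CHK2 peptide for 45 min at room temperature in HEPES pH 7.2 with Mg2+/Mn2+/DTT, compounds at 10 μM to 0.005 μM. Phospho-CHK2(T68) antibody plus HRP secondary gives chemiluminescent read-out used for IC50.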
For orientation: ELISA stands for enzyme-linked immunosorbent assay.

Assay [2] has as its target T1, PLK1. As to the kind of experiment: Cellular PLK1 assay in K562 cells overexpressing CDC25C. It counts as cell-based. Also noted: endogenous in cells; host or cells: K562 (human chronic myelogenous leukemia) overexpressing CDC25C, nocodazole-arrested. The conditions noted are these: nocodazole arrested, cdc25c p-Ser198 readout. In short, it runs like this: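 K562 cells overexpressing CDC25C were arrested with 333 nM nocodazole for 18 h at 37 °C, then exposed to compound at 8 points from 10 μM to 0.005 μM in duplicate for 120 min. After fixation and permeabilization, cells were stained for cdc25c pSer198 with a PE secondary and read by flow cytometry, 10,000 cells per well.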

[3] abbreviates: ELISA, CHK2-derived peptide substrate, read-out: PLK1 IC50 (μM) biochemical assay.
[4] abbreviates: read-out: IC50 in biochemical in vitro PLK1 ELISA assay (less than 10 μM).
Where [5] appears, read: read-out: IC50 in biochemical ELISA assay (less than 0.01 μM).

T1 sequence (P53350 whole entry): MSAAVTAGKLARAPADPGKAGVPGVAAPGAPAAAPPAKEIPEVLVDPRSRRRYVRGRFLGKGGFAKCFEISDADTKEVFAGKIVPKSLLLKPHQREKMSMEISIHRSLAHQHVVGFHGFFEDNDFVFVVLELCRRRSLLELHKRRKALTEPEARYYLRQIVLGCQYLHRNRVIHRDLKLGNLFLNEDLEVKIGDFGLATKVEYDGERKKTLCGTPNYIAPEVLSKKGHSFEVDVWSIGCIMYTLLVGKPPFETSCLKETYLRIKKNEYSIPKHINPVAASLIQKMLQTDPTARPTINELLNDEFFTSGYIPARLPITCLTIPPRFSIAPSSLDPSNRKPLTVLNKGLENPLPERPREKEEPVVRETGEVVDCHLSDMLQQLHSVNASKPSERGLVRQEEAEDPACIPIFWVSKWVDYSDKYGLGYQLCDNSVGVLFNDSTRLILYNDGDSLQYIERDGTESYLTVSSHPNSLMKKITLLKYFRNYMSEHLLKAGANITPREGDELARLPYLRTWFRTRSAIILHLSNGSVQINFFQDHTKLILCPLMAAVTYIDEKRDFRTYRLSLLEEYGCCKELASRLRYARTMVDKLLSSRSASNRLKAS

Turning to `CCCN1C(=O)COc2ccc(Nc3nc(Nc4ccc(N5CCN(S(C)(=O)=O)CC5)c(C(F)(F)F)c4)ncc3F)nc21` [compound 137, 6-(5-fluoro-2-(4-(4-(methylsulfonyl)piperazin-1-yl)-3-(trifluoro-methyl)phenyl-amino)pyrimidin-4-ylamino)-4-propyl-2H-pyrido[3,2-b][1,4]oxazin-3(4H)-one], the concentration for half-maximal inhibition (IC50) in assay [1] (setting [3]) and in assay [2] was ≥ 10 µM throughout.

Consider `CN1CCN(c2cc(Nc3ncc(F)c(Nc4ccc5c(n4)NC(=O)CO5)n3)cc(C(F)(F)F)c2)CC1` [compound 29, 6-(5-fluoro-2-(3-(4-methylpiperazin-1-yl)-5-(trifluoromethyl)phenyl-amino)pyrimidin-4-ylamino)-2H-pyrido[3,2-b][1,4]oxazin-3(4H)-one], for which the figures for the IC50 in assay [1] (setting [3]), in assay [1] (setting [4]) and in assay [2] were < 0.5 µM, < 10 µM and ≥ 10 µM, respectively.

For `CN1CC2CC1CN2c1cccc(Nc2ncc(F)c(Nc3ccc4c(n3)NC(=O)CO4)n2)c1` (centres unmarked) [compound 41, 6-(5-fluoro-2-(3-(5-methyl-2,5-diaza-bicyclo[2.2.1]heptan-2-yl)phenylamino)pyrimidin-4-ylamino)-2H-pyrido[3,2-b][1,4]oxazin-3(4H)-one], the IC50 is < 0.5 µM in assay [1] (setting [3]), < 10 µM in assay [1] (setting [4]) and < 0.5 µM in assay [2].

For the compound `COc1ccc(CN2C(=O)COc3ccc(Nc4nc(Nc5ccc(N6CCN(C)CC6)c(C)c5)ncc4C)nc32)cc1` [compound 126, 4-(4-methoxybenzyl)-6-(5-methyl-2-(3-methyl-4-(4-methylpiperazin-1-yl)phenylamino)pyrimidin-4-ylamino)-2H-pyrido[3,2-b][1,4]oxazin-3(4H)-one], the IC50 in assay [1] (setting [3]) was ≥ 10 µM; in assay [2] it was 0.5 to 5 µM.

For the compound `Cc1cnc(Nc2cccc(N3CCN(C)CC3)c2)nc1Nc1ccc2c(n1)N(CC1CC1)C(=O)CO2` [compound 129, 4-(cyclopropylmethyl)-6-(5-methyl-2-(3-(4-methylpiperazin-1-yl)phenylamino)pyrimidin-4-ylamino)-2H-pyrido[3,2-b][1,4]oxazin-3(4H)-one], the IC50 in assay [1] (setting [3]) was < 0.5 µM; in assay [1] (setting [5]), < 0.01 µM; in assay [1] (setting [4]), < 10 µM; in assay [2], 0.5 to 5 µM.

As for `CCCN1CCOc2ccc(Nc3nc(Nc4ccc(N5CC6CC5CN6C(C)=O)c(C)c4)ncc3F)nc21` (centres unmarked) [compound 37, 1-(5-(4-(5-fluoro-4-(4-propyl-3,4-dihydro-2H-pyrido[3,2-b][1,4]oxazin-6-ylamino)pyrimidin-2-ylamino)-2-methyl-phenyl)-2,5-diaza-bicyclo[2.2.1]heptan-2-yl)ethanone], the results for the IC50 in assay [1] (setting [3]), in assay [1] (setting [4]) and in assay [2] were 0.5 to 5 µM, < 10 µM and 0.5 to 5 µM, respectively.

For `CCCN1CCOc2ccc(Nc3nc(Nc4ccc(N5CC6CC5CN6C(C)=O)c(C)c4)ncc3C)nc21` (centres unmarked) [compound 39, 1-(5-(2-methyl-4-(5-methyl-4-(4-propyl-3,4-dihydro-2H-pyrido[3,2-b][1,4]oxazin-6-ylamino)pyrimidin-2-ylamino)phenyl)-2,5-diazabicyclo[2.2.1]heptan-2-yl)ethanone], the values for the IC50 in assay [1] (setting [3]), in assay [1] (setting [4]) and in assay [2] were 0.5 to 5 µM, < 10 µM and 0.5 to 5 µM, respectively.

On to `Cc1cc(Nc2ncc(F)c(Nc3ccc4c(n3)N(CC3CCC3)C(=O)CO4)n2)ccc1N1CCN(C)CC1` [compound 112, 4-(cyclobutylmethyl)-6-(5-fluoro-2-(3-methyl-4-(4-methylpiperazin-1-yl)phenylamino)pyrimidin-4-ylamino)-2H-pyrido[3,2-b][1,4]oxazin-3(4H)-one], for which the IC50 in assay [1] (setting [3]) and in assay [2] was ≥ 10 µM throughout.

With `CCN1C(=O)COc2ccc(Nc3nc(Nc4ccc(N5CCN(C)CC5)cc4)ncc3C)cc21` [compound 189, 4-ethyl-6-(5-methyl-2-(4-(4-methylpiperazin-1-yl)phenylamino)pyrimidin-4-ylamino)-2H-benzo[b][1,4]oxazin-3(4H)-one], the IC50 in assay [1] (setting [3]) was 0.5 to 5 µM; in assay [1] (setting [4]), < 10 µM; in assay [2], 0.5 to 5 µM.

For the compound `Cc1ccc(Nc2ncc(F)c(Nc3ccc4c(n3)NCCO4)n2)cc1N1CCN(C)CC1` [compound 22, N4-(3,4-dihydro-2H-pyrido[3,2-b][1,4]oxazin-6-yl)-5-fluoro-N2-(4-methyl-3-(4-methylpiperazin-1-yl)phenyl)pyrimidine-2,4-diamine], the IC50 in assay [1] (setting [3]) and in assay [2] was ≥ 10 µM in each case.

For `CN1CCN(c2cc(Nc3ncc(F)c(Nc4ccc5c(n4)NCCO5)n3)cc(C3CC3)c2)CC1` [compound 48, N2-(3-cyclopropyl-5-(4-methylpiperazin-1-yl)phenyl)-N4-(3,4-dihydro-2H-pyrido[3,2-b][1,4]oxazin-6-yl)-5-fluoropyrimidine-2,4-diamine], the IC50 in assay [1] (setting [3]) is < 0.5 µM; in assay [1] (setting [5]) it was < 0.01 µM; in assay [1] (setting [4]), < 10 µM; in assay [2] it was < 0.5 µM.

Consider `CN1CC2CC1CN2c1cccc(Nc2ncc(F)c(Nc3ccc4c(n3)NCCO4)n2)c1` (centres unmarked) [compound 42, N4-(3,4-dihydro-2H-pyrido[3,2-b][1,4]oxazin-6-yl)-5-fluoro-N2-(3-(5-methyl-2,5-diazabicyclo[2.2.1]heptan-2-yl)phenyl)pyrimidine-2,4-diamine], for which the IC50 was < 0.5 µM in assay [1] (setting [3]), < 0.01 µM in assay [1] (setting [5]), < 10 µM in assay [1] (setting [4]) and < 0.5 µM in assay [2].

`CN1CCN(c2cc(Nc3ncc(F)c(Nc4ccc5c(n4)NC(=O)CO5)n3)cc(OC(C)(C)C)c2)CC1` [compound 47, 6-(2-(3-tert-butoxy-5-(4-methylpiperazin-1-yl)phenylamino)-5-fluoro-pyrimidin-4-ylamino)-2H-pyrido[3,2-b][1,4]oxazin-3(4H)-one]: the IC50 was < 0.5 µM in assay [1] (setting [3]), < 10 µM in assay [1] (setting [4]) and < 0.5 µM in assay [2].
